Results: patent US20250179083A1, “TRICYCLIC TRIAZOLO COMPOUNDS AS DGK INHIBITORS” (Incyte Corporation, priority 2023, published 2025)

What was measured:
[1] = target: T1, DGKζ (Homo sapiens, UniProt Q13574); test: In vitro DGKζ inhibition assay (ADP-Glo); format: biochemical; settings: His-tagged human recombinant DGKζ 0.4 nM, 30 μM ATP, 20 μM DLG, 90 minute incubation
T1 construct: His; purchased Signal Chem D30-10H
Procedure: (§1) The DGKα and DGKζ biochemical reactions were performed using His-tagged human recombinant enzymes (Signal Chem, DGKα, #D21-10BH; DGKζ, #D30-10H)) and DLG (Dilauroyl-sn-glycerol) lipid substrate (Signal Chem, #D430-59). ADP-Glo assay was performed using ADP-Glo™ kinase Assay kit (Promega, #V9104). The reactions were carried out in assay buffer containing 40 mM Tris, pH 7.5, 0.1% CHAPS, 0.1% Prionex, 40 mM NaCl, 5 mM MgCl2, 1 mM CaCl2, and 1 mM DTT. DGKα reactions contained 0.1 nM DGKα, 50 μM ATP, and 20 μM DLG. And DGKζ reactions contained 0.4 nM DGKζ, 30 μM ATP, and 20 μM DLG.
(§2) Compounds were added with top concentration of 2 mM with 11 point, 3-fold dilution series. Enzyme solution (contains 2×DGK enzyme concentration in 1× assay buffer) was added to the plate in 2 μL/well volume, followed by 2 μL/well of substrate solution (contains 2× concentration of ATP and DLG substrate in 1× assay buffer). Plates were then centrifuged for 1 min at 1200 RPM and sealed or lidded. For 4 μL reaction volume, test compounds were therefore diluted 100× to final top concentration of 20 μM. After 90 minute incubation, reactions were quenched by addition of 2 μL/well Promega ADP-Glo Reagent, followed by centrifugation and lidding. After 60 min incubation, 2 μL/well Promega Kinase Detection Reagent was added, plates centrifuged, and incubated for 30 min. Plates were then read using Luminescence method on BMG PHERAstar FSX plate reader. Percent inhibition was calculated and IC50s were determined using 4-parameter fit in Genedata Screener. Labcyte Echo acoustic dispenser was used for compound addition, and Formulatrix Tempest liquid handler was used for all reagent dispenses.

[2] = target: T2, DGKα (Homo sapiens, UniProt P23743); test: In vitro DGKα inhibition assay (ADP-Glo); format: biochemical; settings: His-tagged human recombinant DGKα 0.1 nM, 50 μM ATP, 20 μM DLG, 90 minute incubation
T2 construct: His; purchased Signal Chem D21-10BH
T2 sequence (P23743 whole entry): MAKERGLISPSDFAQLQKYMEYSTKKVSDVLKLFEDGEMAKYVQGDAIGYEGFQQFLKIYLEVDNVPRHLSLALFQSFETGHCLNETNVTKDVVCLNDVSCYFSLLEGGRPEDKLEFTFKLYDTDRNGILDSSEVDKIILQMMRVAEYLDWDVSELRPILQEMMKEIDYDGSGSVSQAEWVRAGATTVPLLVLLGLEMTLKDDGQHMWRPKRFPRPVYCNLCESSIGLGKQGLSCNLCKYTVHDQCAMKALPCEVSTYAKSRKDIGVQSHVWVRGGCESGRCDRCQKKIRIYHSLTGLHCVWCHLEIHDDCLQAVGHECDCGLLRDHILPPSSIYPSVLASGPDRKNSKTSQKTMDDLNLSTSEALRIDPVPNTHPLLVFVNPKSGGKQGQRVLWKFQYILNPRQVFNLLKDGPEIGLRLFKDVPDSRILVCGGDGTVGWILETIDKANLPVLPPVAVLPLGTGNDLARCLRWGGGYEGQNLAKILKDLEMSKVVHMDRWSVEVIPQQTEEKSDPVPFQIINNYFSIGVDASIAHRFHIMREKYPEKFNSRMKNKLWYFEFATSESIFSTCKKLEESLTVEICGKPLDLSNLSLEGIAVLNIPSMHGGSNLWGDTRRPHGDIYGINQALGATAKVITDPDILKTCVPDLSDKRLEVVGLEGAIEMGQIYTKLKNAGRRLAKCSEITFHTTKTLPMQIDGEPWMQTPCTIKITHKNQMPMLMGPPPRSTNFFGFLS
Procedure: as §1, §2

T1 sequence (Q13574 whole entry): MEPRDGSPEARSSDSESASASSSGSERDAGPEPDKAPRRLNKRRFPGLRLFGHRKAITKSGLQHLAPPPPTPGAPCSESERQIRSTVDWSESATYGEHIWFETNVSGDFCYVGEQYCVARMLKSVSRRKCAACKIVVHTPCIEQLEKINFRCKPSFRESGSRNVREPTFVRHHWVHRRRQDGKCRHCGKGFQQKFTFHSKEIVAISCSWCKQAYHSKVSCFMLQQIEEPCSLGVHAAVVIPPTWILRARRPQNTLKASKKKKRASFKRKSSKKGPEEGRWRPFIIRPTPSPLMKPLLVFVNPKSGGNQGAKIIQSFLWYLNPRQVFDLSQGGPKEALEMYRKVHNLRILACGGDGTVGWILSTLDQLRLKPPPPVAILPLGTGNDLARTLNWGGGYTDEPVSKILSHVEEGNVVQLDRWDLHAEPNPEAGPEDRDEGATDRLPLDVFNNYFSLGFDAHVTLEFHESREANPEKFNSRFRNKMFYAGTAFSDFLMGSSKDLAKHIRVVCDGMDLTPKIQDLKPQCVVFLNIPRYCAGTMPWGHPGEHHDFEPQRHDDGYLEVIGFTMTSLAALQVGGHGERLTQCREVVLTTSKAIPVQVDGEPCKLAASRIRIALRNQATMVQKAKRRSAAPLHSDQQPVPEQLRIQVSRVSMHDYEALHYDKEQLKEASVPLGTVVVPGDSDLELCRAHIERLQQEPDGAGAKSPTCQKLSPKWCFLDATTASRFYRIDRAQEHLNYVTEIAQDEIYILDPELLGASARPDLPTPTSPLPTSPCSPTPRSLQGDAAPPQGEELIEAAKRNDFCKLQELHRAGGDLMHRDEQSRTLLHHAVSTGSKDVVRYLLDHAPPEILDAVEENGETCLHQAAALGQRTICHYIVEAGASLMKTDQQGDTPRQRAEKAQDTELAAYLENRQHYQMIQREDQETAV

| SMILES | IC50 [1] | IC50 [2] |
| --- | --- | --- |
| CC[C@@H]1CN(c2nc3nncn3c3c2ncn3C[C@@H]2CCCO2)[C@@H](C)CN1C(c1ccc(Cl)cc1)C1CC(F)(F)C1 (stereo partly drawn) [Example 34, 4-((2S,5R)-4-((4-Chlorophenyl)(3,3-difluorocyclobutyl)methyl)-5-ethyl-2-methylpiperazin-1-yl)-1-(((S)-tetrahydrofuran-2-yl)methyl)-1H-[1,2,4]triazolo[3,4-b]purine] | < 0.02 µM | < 0.02 µM |
| CC(CC(c1ccc(Cl)c(F)c1)N1C[C@H](C)N(c2nc3nncn3c3c2ncn3C[C@@H]2CCCO2)C[C@H]1C)C(F)(F)F (single isomer, unassigned) [Example 17] | < 0.02 µM | < 0.02 µM |
| C[C@@H]1CN(c2nc3nncn3c3c2ncn3CC2(O)CCCC2)[C@@H](C)CN1C(c1ccc(Cl)cc1)C1CC(F)(F)C1 (stereo partly drawn) [Example 45, 1-((4-((2S,5R)-4-((4-Chlorophenyl)(3,3-difluorocyclobutyl)methyl)-2,5-dimethylpiperazin-1-yl)-1H-[1,2,4]triazolo[3,4-b]purin-1-yl)methyl)cyclopentan-1-ol] | < 0.02 µM | < 0.02 µM |
| C[C@@H]1CN(c2nc3nncn3c3c2ncn3C[C@@H]2CCCO2)[C@@H](C)CN1C(c1ccc(Cl)c(F)c1)C1CC(F)(F)C1 (stereo partly drawn) [Example 30, 4-((2S,5R)-4-((4-Chloro-3-fluorophenyl)(3,3-difluorocyclobutyl)methyl)-2,5-dimethylpiperazin-1-yl)-1-(((S)-tetrahydrofuran-2-yl)methyl)-1H-[1,2,4]triazolo[3,4-b]purine] | < 0.02 µM | < 0.02 µM |
| CC[C@@H](c1ccc(C(F)(F)F)cc1)N1C[C@H](C)N(c2nc3nncn3c3c2nc(C)n3C[C@@H]2CCCO2)C[C@H]1C [Example 89, 4-((2S,5R)-2,5-Dimethyl-4-((S)-1-(4-(trifluoromethyl)phenyl)propyl)piperazin-1-yl)-2-methyl-1-(((S)-tetrahydrofuran-2-yl)methyl)-1H-[1,2,4]triazolo[3,4-b]purine] | < 0.02 µM | < 0.02 µM |
| CC[C@@H]1CN(c2nc3nncn3c3c2nc(C)n3C[C@@H]2CCCO2)[C@@H](C)CN1[C@H](C)c1ccc(C(F)(F)F)cc1 [Example 42, 4-((2S,5R)-5-ethyl-2-methyl-4-((R)-1-(4-(trifluoromethyl)phenyl)ethyl)piperazin-1-yl)-2-methyl-1-(((S)-tetrahydrofuran-2-yl)methyl)-1H-[1,2,4]triazolo[3,4-b]purine] | < 0.02 µM | < 0.02 µM |
| CC[C@H](c1ccc(Cl)cc1)N1C[C@H](C)N(c2nc3nncn3c3c2nc(C)n3C[C@@H]2CCCO2)C[C@H]1C [Example 86, 4-((2S,5R)-4-((R)-1-(4-chlorophenyl)propyl)-2,5-dimethylpiperazin-1-yl)-2-methyl-1-(((S)-tetrahydrofuran-2-yl)methyl)-1H-[1,2,4]triazolo[3,4-b]purine] | < 0.02 µM | < 0.02 µM |
| CC(C)CC(c1ccc(Cl)c(F)c1)N1C[C@H](C)N(c2nc3nncn3c3c2ncn3C[C@@H]2CCCO2)C[C@H]1C (single isomer, unassigned) [Example 15] | < 0.02 µM | < 0.02 µM |
| Cc1nc2c(N3C[C@@H](C)N(Cc4ccc(C(F)(F)F)cc4)C[C@@H]3C)nc3nncn3c2n1C[C@@H]1CCCO1 [Example 39, 4-((2S,5R)-2,5-Dimethyl-4-(4-(trifluoromethyl)benzyl)piperazin-1-yl)-2-methyl-1-(((S)-tetrahydrofuran-2-yl)methyl)-1H-[1,2,4]triazolo[3,4-b]purine] | < 0.02 µM | < 0.02 µM |
| Cc1nc2c(N3C[C@@H](C)N([C@H](c4ccc(Cl)cc4)[C@H]4CC4(F)F)C[C@@H]3C)nc3nncn3c2n1C[C@@H]1CCCO1 (single isomer, unassigned) [Example 55] | < 0.02 µM | < 0.02 µM |
| Cc1nc2c(N3C[C@H]4CC[C@@H](C3)N4C(c3ccc(F)cc3)c3ccc(F)cc3)nc3nncn3c2n1C[C@@H]1CCCO1 [Example 82, 4-((1R,5S)-8-(Bis(4-fluorophenyl)methyl)-3,8-diazabicyclo[3.2.1]octan-3-yl)-2-methyl-1-(((S)-tetrahydrofuran-2-yl)methyl)-1H-[1,2,4]triazolo[3,4-b]purine] | < 0.02 µM | < 0.02 µM |
| Cc1nc2c(N3C[C@@H](C)N(C(c4ccc(Cl)cc4)C4CC4)C[C@@H]3C)nc3nncn3c2n1C[C@@H]1CCCO1 (stereo partly drawn) [Example 54, 4-((2S,5R)-4-((4-Chlorophenyl)(cyclopropyl)methyl)-2,5-dimethylpiperazin-1-yl)-2-methyl-1-(((S)-tetrahydrofuran-2-yl)methyl)-1H-[1,2,4]triazolo[3,4-b]purine] | < 0.02 µM | < 0.02 µM |
| C[C@@H]1CN(c2cc3nncn3c3c2ncn3C[C@@H]2CCCO2)[C@@H](C)CN1C(c1ccc(F)cc1)c1ccc(F)cc1 [Example 43, 4-((2S,5R)-4-(Bis(4-fluorophenyl)methyl)-2,5-dimethylpiperazin-1-yl)-1-(((S)-tetrahydrofuran-2-yl)methyl)-1H-imidazo[4,5-e][1,2,4]triazolo[4,3-a]pyridine] | < 0.02 µM | < 0.02 µM |
| C[C@@H]1CN(c2nc3nncn3c3c2ncn3C[C@@H]2CCCO2)[C@@H](C)CN1C(c1ccc(Cl)cc1)[C@H]1CC1(F)F (single isomer, unassigned) [Example 7] | < 0.02 µM | < 0.02 µM |
| CC[C@@H](c1ccc(C(F)(F)F)cc1)N1C[C@H](C)N(c2nc3nncn3c3c2ncn3C[C@@H]2CCCO2)C[C@H]1C [Example 59, 4-((2S,5R)-2,5-Dimethyl-4-((S)-1-(4-(trifluoromethyl)phenyl)propyl)piperazin-1-yl)-1-(((S)-tetrahydrofuran-2-yl)methyl)-1H-[1,2,4]triazolo[3,4-b]purine] | < 0.02 µM | < 0.02 µM |
| C[C@@H]1CN(c2nc3nncn3c3c2ncn3C[C@@H]2CCCO2)[C@@H](C)CN1C(c1ccc(Cl)cc1)C1CC1 (stereo partly drawn) [Example 10, 4-((2S,5R)-4-((4-Chlorophenyl)(cyclopropyl)methyl)-2,5-dimethylpiperazin-1-yl)-1-(((S)-tetrahydrofuran-2-yl)methyl)-1H-[1,2,4]triazolo[3,4-b]purine] | < 0.02 µM | < 0.02 µM |
| CC[C@H](c1ccc(C(F)(F)F)cc1)N1C[C@H](C)N(c2nc3nncn3c3c2ncn3C[C@@H]2CCCO2)C[C@H]1C [Example 60, 4-((2S,5R)-2,5-dimethyl-4-((R)-1-(4-(trifluoromethyl)phenyl)propyl)piperazin-1-yl)-1-(((S)-tetrahydrofuran-2-yl)methyl)-1H-[1,2,4]triazolo[3,4-b]purine] | < 0.02 µM | < 0.02 µM |
| CC(CC(c1ccc(Cl)cc1)N1C[C@H](C)N(c2nc3nncn3c3c2ncn3C[C@@H]2CCCO2)C[C@H]1C)C(F)(F)F (single isomer, unassigned) [Example 12] | < 0.02 µM | < 0.02 µM |
| CC[C@@H](c1ccc(Cl)cc1)N1C[C@H](C)N(c2nc3nncn3c3c2ncn3C[C@@H]2CCCO2)C[C@H]1C [Example 57, 4-((2S,5R)-4-((S)-1-(4-Chlorophenyl)propyl)-2,5-dimethylpiperazin-1-yl)-1-(((S)-tetrahydrofuran-2-yl)methyl)-1H-[1,2,4]triazolo[3,4-b]purine] | 0.02 to 0.2 µM | < 0.02 µM |
| Cc1nc2c(N3C[C@@H](C)N(C(c4ccc(Cl)cc4)[C@@H]4CC4(F)F)C[C@@H]3C)nc3nncn3c2n1C[C@@H]1CCCO1 (single isomer, unassigned) [Example 8] | < 0.02 µM | < 0.02 µM |
| Cc1nc2c(N3C[C@@H](C)N(C(C)c4ccc(C(F)(F)F)cc4)C[C@@H]3C)nc3nncn3c2n1C[C@@H]1CCCO1 (stereo partly drawn) [Example 67, 4-((2S,5R)-2,5-Dimethyl-4-(1-(4-(trifluoromethyl)phenyl)ethyl)piperazin-1-yl)-2-methyl-1-(((S)-tetrahydrofuran-2-yl)methyl)-1H-[1,2,4]triazolo[3,4-b]purine] | < 0.02 µM | < 0.02 µM |
| Cc1nc2c(N3C[C@@H](C)N(Cc4ccc(Cl)cc4F)C[C@@H]3C)nc3nncn3c2n1C[C@@H]1CCCO1 [Example 71, 4-((2S,5R)-4-(4-Chloro-2-fluorobenzyl)-2,5-dimethylpiperazin-1-yl)-2-methyl-1-(((S)-tetrahydrofuran-2-yl)methyl)-1H-[1,2,4]triazolo[3,4-b]purine] | < 0.02 µM | < 0.02 µM |
| C[C@@H]1CN(c2nc3nncn3c3c2ncn3CC2(O)CCCC2)[C@@H](C)CN1C(c1ccc(C(F)(F)F)cc1)C1CC(F)(F)C1 (stereo partly drawn) [Example 46, 1-((4-((2S,5R)-4-((3,3-Difluorocyclobutyl)(4-(trifluoromethyl)phenyl)methyl)-2,5-dimethylpiperazin-1-yl)-1H-[1,2,4]triazolo[3,4-b]purin-1-yl)methyl)cyclopentan-1-ol] | < 0.02 µM | < 0.02 µM |
